Data on 19 compounds can be found in PubChem BioAssay AID248 (DTP/NCI, 2004).

Several values for one entry are separate records, joined by “and”; a condition that tells them apart may be missing. Equal values may be shown once. Inconclusive results and toxic doses are left out.

The assay deals with L1210 leukemia ip in BDF1 mice, survival T/C. Nature of the assay: NCI In Vivo Anticancer Drug Screen. Data for tumor model L1210 Leukemia (intraperitoneal) in B6D2F1 (BDF1) mice. As to conditions: endpoint: mean survival time, higher = longer survival. Put shortly:
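Tumor cells were implanted, animals were treated, and survival was followed. The result divides the treated measurement by the vehicle-control measurement.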

Where [1] appears, read: dose: 100.0 mg/kg/injection, schedule: Q01DX009 (ip), vehicle: Klucel (hydroxypropylcellulose) (HPC).
Where [2] appears, read: dose: 200.0 mg/kg/injection, schedule: Q01DX009 (ip), vehicle: Klucel (hydroxypropylcellulose) (HPC).
[3] abbreviates: dose: 400.0 mg/kg/injection, schedule: Q01DX009 (ip), vehicle: Klucel (hydroxypropylcellulose) (HPC).
Where [4] appears, read: dose: 25.0 mg/kg/injection, schedule: Q01DX009 (ip), vehicle: saline.
The mark [5] stands for this setting: dose: 100.0 mg/kg/injection, schedule: Q01DX009 (ip), vehicle: saline with Tween-80.
The mark [6] stands for this setting: dose: 100.0 mg/kg/injection, schedule: Q04DX003 (ip), vehicle: Klucel (hydroxypropylcellulose) (HPC).
The mark [7] stands for this setting: dose: 100.0 mg/kg/injection, schedule: Q04DX003 (ip), vehicle: saline with Tween-80.
[8] abbreviates: dose: 200.0 mg/kg/injection, schedule: Q01DX009 (ip), vehicle: saline with Tween-80.
The mark [9] stands for this setting: dose: 200.0 mg/kg/injection, schedule: Q04DX003 (ip), vehicle: Klucel (hydroxypropylcellulose) (HPC).
Where [10] appears, read: dose: 200.0 mg/kg/injection, schedule: Q04DX003 (ip), vehicle: saline with Tween-80.
[11] abbreviates: dose: 400.0 mg/kg/injection, schedule: Q01DX009 (ip), vehicle: saline with Tween-80.
Setting [12] is: dose: 400.0 mg/kg/injection, schedule: Q04DX003 (ip), vehicle: Klucel (hydroxypropylcellulose) (HPC).
[13] abbreviates: dose: 400.0 mg/kg/injection, schedule: Q04DX003 (ip), vehicle: saline with Tween-80.

For the compound `O=C1CC2(CCCCC2)C(=O)N1`, the T/C reads like this: (dose: 5.0 mg/kg/injection, schedule: Q04DX003 (ip), vehicle: saline with Tween-80) 102 % of control; (dose: 10.0 mg/kg/injection, schedule: Q04DX003 (ip), vehicle: saline with Tween-80) 102 % of control; (dose: 20.0 mg/kg/injection, schedule: Q04DX003 (ip), vehicle: saline with Tween-80) 102 % of control.
With `O=C(CCc1ccccc1)NC(=S)Nc1cc(C(F)(F)F)ccc1Cl`, the T/C is 94 % of control under setting [1], 90 % of control under setting [2] and 87 % of control under setting [3].
In the case of `N/C(Cc1ccc([N+](=O)[O-])cc1)=N\O`, the T/C reads like this: (dose: 25.0 mg/kg/injection, schedule: Q01DX009 (ip), vehicle: Klucel (hydroxypropylcellulose) (HPC)) 100 % of control; (dose: 50.0 mg/kg/injection, schedule: Q01DX009 (ip), vehicle: Klucel (hydroxypropylcellulose) (HPC)) 91 % of control; under setting [1], 100 % of control.
`OC(CF)CCl` (centres undefined): the T/C by setting is: (dose: 6.25 mg/kg/injection, schedule: Q01DX009 (ip), vehicle: saline) 89 % of control; (dose: 12.5 mg/kg/injection, schedule: Q01DX009 (ip), vehicle: saline) 96 % of control; under setting [4], 103 % of control.
Take `Cc1ccc(N2C(=O)CC(Sc3ccccc3N)C2=O)cc1Cl` (centres undefined): the T/C is 88 % of control under setting [1]; 88 % of control under setting [5]; 93 % of control under setting [6]; 86 % of control and 89 % of control under setting [7]; 96 % of control under setting [8]; 93 % of control under setting [9]. The T/C is, setting by setting: under setting [10], 87 % of control and 91 % of control; under setting [3], 90 % of control; under setting [11], 95 % of control; under setting [12], 94 % of control; under setting [13], 86 % of control and 87 % of control.
On to `CN(C)C(=O)Nc1cccc(OC(=O)NC2CCCC2)c1`, for which the T/C runs as follows: under setting [7], 100 % of control; under setting [10], 95 % of control; under setting [13], 100 % of control.
In the case of `CCCCC(=O)OCC(=O)[C@]1(O)Cc2c(O)c3c(c(O)c2[C@@H](OC2CC(NC(=O)C(F)(F)F)C(O)C(C)O2)C1)C(=O)c1c(OC)cccc1C3=O` (some centres undefined), the T/C is, setting by setting: (dose: 7.5 mg/kg/injection, schedule: Q01DX004 (ip), vehicle: saline with Tween-80) 108 % of control and 112 % of control; (dose: 10.0 mg/kg/injection, schedule: Q01DX004 (ip), vehicle: saline with Tween-80) 117 % of control and 119 % of control and 120 % of control; (dose: 30.0 mg/kg/injection, schedule: Q01DX004 (ip), vehicle: saline with Tween-80) 166 % of control; (dose: 40.0 mg/kg/injection, schedule: Q01DX004 (ip), vehicle: other) 164 % of control and 375 % of control; (dose: 50.0 mg/kg/injection, schedule: Q01DX004 (ip), vehicle: other) 372 % of control and 470 % of control; (dose: 60.0 mg/kg/injection, schedule: Q01DX004 (ip), vehicle: other) 177 % of control and 441 % of control.
As to `N#CCC(=O)N1CCCCC1`, the T/C was 93 % of control (dose: 50.0 mg/kg/injection, schedule: Q01DX001 (ip), vehicle: carboxymethylcellulose (CMC)); 93 % of control (dose: 100.0 mg/kg/injection, schedule: Q01DX001 (ip), vehicle: carboxymethylcellulose (CMC)); 114 % of control (dose: 200.0 mg/kg/injection, schedule: Q01DX001 (ip), vehicle: carboxymethylcellulose (CMC)); 95 % of control (dose: 400.0 mg/kg/injection, schedule: Q01DX001 (ip), vehicle: carboxymethylcellulose (CMC)).
Regarding `c1ccc(C2=C(c3ccccc3)N=c3ccccc3=c3ccccc3=N2)cc1`, the T/C is 98 % of control under setting [1]; 94 % of control under setting [6]; 94 % of control under setting [2]; 94 % of control under setting [9]; 94 % of control under setting [3]; 102 % of control under setting [12].
On to `CC(CP(=O)(c1ccccc1)c1ccccc1)C(=O)O` (centres undefined), for which the T/C runs as follows: under setting [5], 98 % of control; under setting [8], 97 % of control; under setting [11], 98 % of control.
In the case of `CC(C)(C)NC(=O)NCCc1ccccc1`, the T/C reads like this: under setting [1], 106 % of control; under setting [6], 96 % of control; under setting [9], 97 % of control and 89 % of control; under setting [3], 103 % of control; under setting [12], 91 % of control and 92 % of control.
Turning to `OC(C(c1ccccc1)N1CCCCC1)C(O)(c1ccccc1)c1ccccc1` (centres undefined), the T/C was 97 % of control (dose: 100.0 mg/kg/injection, schedule: Q01DX001 (ip), vehicle: saline sonified); 108 % of control (dose: 200.0 mg/kg/injection, schedule: Q01DX001 (ip), vehicle: saline sonified); 93 % of control (dose: 400.0 mg/kg/injection, schedule: Q01DX001 (ip), vehicle: saline sonified).
In the case of `CC(NC(=O)c1ccccc1)C(=O)Nc1ccccc1` (centres undefined), the T/C is 101 % of control (dose: 100.0 mg/kg/injection, schedule: Q04DX002 (ip), vehicle: Klucel (hydroxypropylcellulose) (HPC)); 114 % of control (dose: 200.0 mg/kg/injection, schedule: Q04DX002 (ip), vehicle: Klucel (hydroxypropylcellulose) (HPC)); 108 % of control (dose: 400.0 mg/kg/injection, schedule: Q04DX002 (ip), vehicle: Klucel (hydroxypropylcellulose) (HPC)).
`O=C1Cc2ccccc2O1`: the T/C is 101 % of control (dose: 50.0 mg/kg/injection, schedule: Q01DX009 (ip), vehicle: saline with Tween-80) and 96 % of control under setting [5].
`O=C1/C(=C/c2ccc(Br)cc2)Cc2ccccc21`: the T/C by setting is: (dose: 100.0 mg/kg/injection, schedule: Q04DX002 (ip), vehicle: saline with Tween-80) 94 % of control; (dose: 200.0 mg/kg/injection, schedule: Q04DX002 (ip), vehicle: saline with Tween-80) 90 % of control; (dose: 400.0 mg/kg/injection, schedule: Q04DX002 (ip), vehicle: saline with Tween-80) 90 % of control.
As for `CNC/C=C/CNC`, the T/C is 97 % of control under setting [4]; 102 % of control (dose: 25.0 mg/kg/injection, schedule: Q04DX003 (ip), vehicle: saline); 90 % of control (dose: 50.0 mg/kg/injection, schedule: Q01DX009 (ip), vehicle: saline); 93 % of control (dose: 50.0 mg/kg/injection, schedule: Q04DX003 (ip), vehicle: saline); 98 % of control (dose: 100.0 mg/kg/injection, schedule: Q01DX009 (ip), vehicle: saline); 98 % of control and 99 % of control (dose: 100.0 mg/kg/injection, schedule: Q04DX003 (ip), vehicle: saline).
For `O=P(NC1CCCCC1)(OCc1ccccc1)N(CCCl)CCCl` (centres undefined), the T/C was 98 % of control (dose: 10.0 mg/kg/injection, schedule: Q01DX Z (ip), vehicle: water); 91 % of control (dose: 20.0 mg/kg/injection, schedule: Q01DX Z (ip), vehicle: water); 96 % of control (dose: 40.0 mg/kg/injection, schedule: Q01DX Z (ip), vehicle: water); 93 % of control (dose: 80.0 mg/kg/injection, schedule: Q01DX009 (ip), vehicle: water); 89 % of control (dose: 160.0 mg/kg/injection, schedule: Q01DX009 (ip), vehicle: water).
With `CN(N=O)C(=O)C(=O)N(C)N=O`, the T/C runs as follows: (dose: 9.0 mg/kg/injection, schedule: Q01DX001 (ip), vehicle: other) 109 % of control; (dose: 13.0 mg/kg/injection, schedule: Q01DX001 (ip), vehicle: other) 112 % of control; (dose: 15.0 mg/kg/injection, schedule: Q01DX Z (ip), vehicle: saline) 100 % of control; (dose: 30.0 mg/kg/injection, schedule: Q01DX Z (ip), vehicle: saline) 103 % of control; (dose: 60.0 mg/kg/injection, schedule: Q01DX Z (ip), vehicle: saline) 92 % of control; (dose: 120.0 mg/kg/injection, schedule: Q01DX Z (ip), vehicle: saline) 94 % of control.
Regarding `CCOC(=O)c1cnc(SC)nc1Nc1cccc(Br)c1`, the T/C under setting [1] is 91 % of control; the T/C under setting [6] was 97 % of control; the T/C under setting [2] was 96 % of control; the T/C under setting [9] is 92 % of control; the T/C under setting [3] was 93 % of control; the T/C under setting [12] was 90 % of control.
